This is an account of results in ChEMBL document CHEMBL4196044, “Design, synthesis and ability of non-gold complexed substituted purine derivatives to inhibit LPS-induced inflammatory response” (Eur J Med Chem, 2018).

Data set [1] concerns RAW264.7. Kind of data set: Anti-inflammatory activity in mouse RAW264.7 cells assessed as inhibition of LPS-induced IL-1beta production at 10 uM pretreated for 2 hrs followed by LPS stimulation measured after over night incubation by ELISA relative to control. It is filed as functional.
Data set [2] in a line: Cytotoxicity against human THP1 cells assessed as cell viability at 10 uM by CellTiter-Glo luminescent assay relative to control. Format: cell-based. Conditions: THP-1 cells, read-out: Activity. (In general: Cellular ATP, detected with luciferase, serves as a proxy for viable cell number.)
The subject of data set [3] is RAW264.7. Nature of the data set: Anti-inflammatory activity in mouse RAW264.7 cells assessed as inhibition of LPS-induced TNF-alpha production at 10 uM pretreated for 2 hrs followed by LPS stimulation measured after over night incubation by ELISA relative to control. Format: functional. (In an ELISA, binding on a coated surface is turned into a signal by an enzyme label.)

The test system of data set [4] is RAW264.7. Kind of data set: Anti-inflammatory activity in mouse RAW264.7 cells assessed as inhibition of LPS-induced TNF-alpha production pretreated for 2 hrs followed by LPS stimulation measured after over night incubation by ELISA. Format: functional, cell-based.
Data set [5] has as its system Mus musculus. Kind of data set: Anti-inflammatory activity in ICR mouse assessed as inhibition of carrageenan-induced hind paw edema volume at 10 mg/kg administered via gavage treated for 30 mins post carrageenan challenge measured after 2 to 3 hrs. Format: functional, organism-based. On the technique in general: Carrageenan injected into the paw causes an acute inflammation.

In data set [6] the test system is RAW264.7. Nature of the data set: Inhibition of LPS-induced JNK phosphorylation in mouse RAW264.7 cells at 10 uM measured after 24 hrs by Western blot method. It is filed as cell-based.
Data set [7] concerns RAW264.7. Kind of data set: Inhibition of LPS-induced ERK phosphorylation in mouse RAW264.7 cells at 10 uM measured after 24 hrs by Western blot method. It is filed as cell-based.
Data set [8] deals with MAP kinase p38 (Mus musculus) (UniProt P47811+O08911+Q9WUI1+Q9Z1B7). Nature of the data set: Inhibition of LPS-induced p38 phosphorylation in mouse RAW264.7 cells at 10 uM measured after 24 hrs by Western blot method. It is filed as cell-based.
Data set [9] deals with RAW264.7. Kind of data set: Anti-inflammatory activity in mouse RAW264.7 cells assessed as inhibition of LPS-induced iNOS mRNA expression at 10 uM after 24 hrs by RT-qPCR analysis. It is filed as functional, cell-based.
Data set [10] deals with RAW264.7. Nature of the data set: Anti-inflammatory activity in mouse RAW264.7 cells assessed as inhibition of LPS-induced IL-6 production pretreated for 2 hrs followed by LPS stimulation measured after over night incubation by ELISA. Format: functional, cell-based.
Data set [11] has as its system RAW264.7. Kind of data set: Anti-inflammatory activity in mouse RAW264.7 cells assessed as inhibition of LPS-induced PGE2 production pretreated for 2 hrs followed by LPS stimulation measured after over night incubation by ELISA. It is filed as functional, cell-based.
The subject of data set [12] is RAW264.7. Nature of the data set: Anti-inflammatory activity in mouse RAW264.7 cells assessed as inhibition of LPS-induced NO release pretreated for 2 hrs followed by LPS stimulation measured after 48 hrs […]. Format: functional, cell-based.
In data set [13] the test system is RAW264.7. Nature of the data set: Anti-inflammatory activity in mouse RAW264.7 cells assessed as inhibition of LPS-induced IL-1beta production pretreated for 2 hrs followed by LPS stimulation measured after over night incubation by ELISA. It is filed as functional, cell-based.
For data set [14], the system named is Mus musculus. Nature of the data set: Anti-inflammatory activity in ICR mouse assessed as inhibition of carrageenan-induced hind paw edema volume at 10 mg/kg administered via gavage treated for 30 mins post carrageenan challenge measured after 3 to 5 hrs. Format: functional, organism-based.
Data set [15] relates to RAW264.7. Nature of the data set: Anti-inflammatory activity in mouse RAW264.7 cells assessed as inhibition of LPS-induced COX-2 mRNA expression at 10 uM after 24 hrs by RT-qPCR analysis. It is filed as functional, cell-based.
Data set [16] concerns the target T1, NF-kappa-B inhibitor alpha (Mus musculus) (UniProt Q9Z1E3).
T1 sequence (whole entry): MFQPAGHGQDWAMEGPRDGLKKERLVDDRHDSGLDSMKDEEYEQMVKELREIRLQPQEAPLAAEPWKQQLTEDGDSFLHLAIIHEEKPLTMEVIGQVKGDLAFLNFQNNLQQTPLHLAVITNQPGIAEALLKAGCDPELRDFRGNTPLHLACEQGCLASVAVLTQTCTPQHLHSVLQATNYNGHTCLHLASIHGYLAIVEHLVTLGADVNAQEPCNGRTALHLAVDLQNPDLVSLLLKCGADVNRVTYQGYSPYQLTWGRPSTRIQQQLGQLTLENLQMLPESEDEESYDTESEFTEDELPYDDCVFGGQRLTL
Nature of the data set: Inhibition of LPS-induced IkappaBalpha phosphorylation in mouse RAW264.7 cells at 10 uM measured after 24 hrs by Western blot method. Format: cell-based.

Data set [17] concerns the target Transcription factor p65 (Mus musculus) (UniProt Q04207). Nature of the data set: Inhibition of LPS-induced NF-kappaB-p65 nuclear translocation in mouse RAW264.7 cells at 10 uM by DAPI staining-based immunofluorescence analysis. It is filed as cell-based.
The test system of data set [18] is Mus musculus. Kind of data set: Anti-inflammatory activity in ICR mouse assessed as inhibition of carrageenan-induced hind paw edema volume at 10 mg/kg administered via gavage treated for 30 mins post carrageenan challenge measured after 2 to 5 hrs. It is filed as functional, organism-based.

The source made the active and inactive calls. The rule behind the calls is not given here.

Sequence of Transcription factor p65 (Mus musculus) (Q04207 whole entry): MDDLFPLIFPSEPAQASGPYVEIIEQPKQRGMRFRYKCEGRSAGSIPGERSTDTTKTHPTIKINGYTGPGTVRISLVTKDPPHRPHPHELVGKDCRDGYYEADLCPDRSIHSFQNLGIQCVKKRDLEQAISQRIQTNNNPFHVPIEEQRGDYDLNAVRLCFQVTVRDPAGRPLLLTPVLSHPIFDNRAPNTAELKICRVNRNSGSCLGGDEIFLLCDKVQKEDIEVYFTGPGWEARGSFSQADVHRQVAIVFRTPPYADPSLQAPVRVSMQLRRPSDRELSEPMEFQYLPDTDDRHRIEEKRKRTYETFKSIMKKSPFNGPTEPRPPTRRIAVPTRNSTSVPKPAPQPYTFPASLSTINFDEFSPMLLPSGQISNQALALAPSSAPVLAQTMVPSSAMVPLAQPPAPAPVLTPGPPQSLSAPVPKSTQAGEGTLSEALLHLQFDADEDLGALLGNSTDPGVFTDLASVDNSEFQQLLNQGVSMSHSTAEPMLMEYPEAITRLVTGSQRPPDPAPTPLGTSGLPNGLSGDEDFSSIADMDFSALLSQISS

As to `CC(=O)NS(=O)(=O)c1ccc(Nc2ncnc3[nH]cnc23)cc1`, the inhibition (usually the relative decrease from the control value, in per cent) at 10 µM in the data set on RAW264.7 [1] worked out at 16.1%; in the data set on RAW264.7 [3], 12.4%. Also, the viability at 10 µM in data set [2] was 90.7%.
With `Fc1cc(Nc2ncnc3[nH]cnc23)ccc1Cl`, the inhibition result in the data set on RAW264.7 [4], in the data set on RAW264.7 [10], in the data set on RAW264.7 [11] and in the data set on RAW264.7 [13] was “Dose-dependent effect” in each case. The inhibition entry (in the data set with Mus musculus [5]; in the data set on RAW264.7 [6]; in the data set with RAW264.7 [7]; in [8]; in the data set with RAW264.7 [9]; in the data set on Mus musculus [14]) was “Active” each time. The inhibition entry (in the data set with RAW264.7 [15]; in data set [16]; in [17]) was “Active” in each case. Also, the inhibition at 10 µM in the data set on RAW264.7 [1] amounted to 84.2%; with RAW264.7 [3] it was 71%. In addition, the IC50 (commonly the concentration that gives 50% inhibition) in the data set with RAW264.7 [12] was found to be 4.43 µM. In addition, in [2], the viability at 10 µM was determined as 99.3%.
Turning to `Clc1ccccc1CNc1ncnc2nc[nH]c12`, the viability at 10 µM in data set [2] came out at 93.8%.
On to `COc1ccc(Nc2ncnc3[nH]cnc23)cc1`, for which the inhibition at 10 µM in the data set with RAW264.7 [1] turned out to be 7.29%; in the data set on RAW264.7 [3], 25.6%. The viability at 10 µM in data set [2] was 100%.
Turning to `COc1cc(Cn2cnc3c(NCc4ccccc4Cl)ncnc32)cc(OC)c1`, the inhibition at 10 µM with RAW264.7 [1] amounted to 19.8%; with RAW264.7 [3], 9.65%. Also, the viability at 10 µM in data set [2] is 90.2%.
`CCCn1cnc2c(NCc3ccccc3Cl)ncnc21`: the inhibition at 10 µM with RAW264.7 [1] was 14.1%; in the data set on RAW264.7 [3], 22.4%. In addition, the viability at 10 µM in data set [2] came out at 103%.
For `Oc1ccc(Nc2ncnc3[nH]cnc23)cc1`, in that order: 12.4%, 18.5% and 95.9%.
For `Clc1ccc(Nc2ncnc3[nH]cnc23)cc1`, in that order: 28.6%, 16.1% and 92%.
For `Clc1cccc(Nc2ncnc3[nH]cnc23)c1`, the inhibition at 10 µM in the data set on RAW264.7 [1] worked out at 12.2%; in the data set with RAW264.7 [3], 18.5%. The viability at 10 µM in data set [2] came to 91%.
For `c1nc2nc[nH]c(N3CCCC3)c-2n1` the same measures were -9.43%, 11.7% and 91.1%.
In the case of `c1coc(CNc2ncnc3[nH]cnc23)c1` [KINETIN], the inhibition at 10 µM in the data set with RAW264.7 [1] is -19.5%; with RAW264.7 [3], 45.9%. Further, the viability at 10 µM in data set [2] came out at 107%.
For `COc1cccc(Nc2ncnc3[nH]cnc23)c1`, the inhibition entry in the data set with RAW264.7 [4], with RAW264.7 [10], with RAW264.7 [11] and in the data set with RAW264.7 [13] was “Dose-dependent effect” each time. The inhibition result (in the data set on Mus musculus [5]; in the data set on RAW264.7 [6]; in the data set with RAW264.7 [7]; in data set [8]; in the data set with RAW264.7 [9]; in the data set with RAW264.7 [15]) was “Active” throughout. Moreover, the inhibition result in data set [16] and in data set [17] was “Active” each time. In addition, the inhibition at 10 µM was 88.9% with RAW264.7 [1] and 69.8% in the data set with RAW264.7 [3]. In addition, the IC50 in the data set with RAW264.7 [12] was 3.38 µM. The viability at 10 µM in data set [2] turned out to be 90.7%.
Take `Clc1ccccc1CNc1[nH]cnc2ncnc1-2`: the inhibition entry with RAW264.7 [4], in the data set with RAW264.7 [10], in the data set with RAW264.7 [11] and in the data set with RAW264.7 [13] was “Dose-dependent effect” throughout. Also, the inhibition result (in the data set on Mus musculus [5]; with RAW264.7 [6]; in the data set with RAW264.7 [7]; in data set [8]; with RAW264.7 [9]; with RAW264.7 [15]) was “Active” each time. In addition, the inhibition result (in data set [16]; in the data set on Mus musculus [18]; in [17]) was “Active” throughout. Moreover, the inhibition at 10 µM is 89% in the data set with RAW264.7 [1] and 86.2% in the data set with RAW264.7 [3]. The IC50 in the data set on RAW264.7 [12] amounted to 3.54 µM.
For `Fc1ccc(CNc2ncnc3nc[nH]c23)cc1`, the results for the inhibition at 10 µM in the data set on RAW264.7 [1] and in the data set with RAW264.7 [3] were 14.6% and 22.4%, respectively. Moreover, in data set [2], the viability at 10 µM is 92.9%.
